In US8088806B2 (Achillion Pharmaceuticals, Inc., priority 2005, dated 2012):

system: HCV replicon; experiment: Replicon based assay of HCV replication inhibition (NPT ELISA); assay type: cell-based, Hepatitis C virus; settings: Hepatitis C virus, Huh-7, 72 h, Table I; Huh-7 HCV replicon-containing cells, three days; read-out: Activity
Procedure, shortened: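 NPT (neomycin phosphotransferase) content, proportional to replicon replication, quantified by capture ELISA on day four. Before that, replicon-bearing Huh-7 cells in G418-free screening medium were exposed three days at 37° C to compound, typically six doses from 10 to 0.03 micromolar, with equal DMSO across wells.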

First: CCCCCOc1ccc(Nc2nccs2)cc1C(F)(F)F [compound 1, N-(3-(trifluoromethyl)-4-(pentyloxy)phenyl)thiazol-2-amine]
Second: CCCCCOc1ccc(Nc2ncc(C(=O)O)s2)cc1C(F)(F)F [compound 148, 2-(3-(trifluoromethyl)-4-(pentyloxy)phenylamino)thiazole-5-carboxylic acid]
The EC50 of the first is lower: less than 1000 nM for the first, greater than 10000 nM for the second. The first is the more potent here.

Compared with Fc1ccc(-c2csc(Nc3cccc(Cc4ccccc4)c3)n2)cc1 [compound 35, N-(3-benzylphenyl)-4-(4-fluorophenyl)thiazol-2-amine], CCCCCOc1ccc(Nc2nc(-c3ccc(F)cc3)cs2)cc1 [compound 21, 4-(4-fluorophenyl)-N-(4-(pentyloxy)phenyl)thiazol-2-amine] is lower in EC50: greater than 10000 nM for the first, less than 1000 nM for the second.

COc1cccc2sc(Nc3nc(-c4ccncc4)cs3)nc12 [compound 205, 4-methoxy-N-(4-(pyridin-4-yl)thiazol-2-yl)benzo[d]thiazol-2-amine] and CCCCCOc1ccc(Nc2nc(-c3cccc(F)c3)cs2)cc1C(F)(F)F [compound 198, N-(3-(trifluoromethyl)-4-(pentyloxy)phenyl)-4-(3-fluorophenyl)thiazol-2-amine] cannot be ordered by EC50: less than 1000 nM for the first, less than 1000 nM for the second.

First: CCCCCOc1ccc(Nc2nc(-c3ccc(C(=O)OC)cn3)cs2)cc1C(F)(F)F [compound 211, methyl 6-(2-(3-(trifluoromethyl)-4-(pentyloxy)phenylamino)thiazol-4-yl)pyridine-3-carboxylate]
Second: CCCCCOc1ccc(Nc2nc(C(C)=O)c(C)s2)cc1C(F)(F)F [compound 136, 1-(2-(3-(trifluoromethyl)-4-(pentyloxy)phenylamino)-5-methylthiazol-4-yl)ethanone]
The EC50 of the first is lower: less than 1000 nM for the first, greater than 10000 nM for the second. The first is the more potent here.

same assay, conditions: Hepatitis C virus, Huh-7, 72 h, Table III; Huh-7 HCV replicon-containing cells, three days; read-out: Activity

First: CCCCCOc1ccc(Nc2nc(-c3cncc(C(=O)O)c3)cs2)cc1C(F)(F)F [compound 646, 5-(2-(3-(trifluoromethyl)-4-(pentyloxy)phenylamino)thiazol-4-yl)pyridine-3-carboxylic acid]
Second: CCCCCCCCOc1ccc(Nc2nc(-c3cncc(OC)c3)cs2)cc1C(F)(F)F [compound 656, N-(3-(trifluoromethyl)-4-(octyloxy)phenyl)-4-(5-methoxypyridin-3-yl)thiazol-2-amine]
The EC50 of the first is lower: less than 1000 nM for the first, 1000 to 10000 nM for the second.

CCCCCCCCOc1ccc(Nc2nc(-c3ccc[n+]([O-])c3)cs2)cc1 [compound 522] and CCCCCCCCOc1ccc(Nc2nc(-c3cncc(C(N)=O)c3)cs2)cc1 [compound 653, 5-(2-(4-(octyloxy)phenylamino)thiazol 4-yl)pyridine-3-carboxamide] cannot be ordered by EC50: less than 1000 nM for the first, less than 1000 nM for the second.

Compared with CCCCCCCCc1ccc(Nc2nc(-c3ccc(O)c(O)c3)cs2)cc1 [compound 547, 4-(2-(4-octylphenylamino)thiazol-4-yl)benzene-1,2-diol], CCCCCCCCN(C)c1ccc(Nc2nc(Cc3ccc(Cl)cc3)cs2)cc1 [compound 638, N^1-(4-(4-chlorobenzyl)thiazol-2-yl)-N^4-methyl-N^4-octylbenzene-1,4-diamine] is higher in EC50: less than 1000 nM for the first, 1000 to 10000 nM for the second.

CCCCCOc1ccc(Nc2nc(/C=C/c3ccc(F)c(F)c3)cs2)cc1C(F)(F)F [compound 599, 4-(3,4-difluorostyryl)-N-(3-(trifluoromethyl)-4-(pentyloxy)phenyl)thiazol-2-amine] and CCCCCCCCOc1ccc(Nc2nc(-c3cccc(C(F)(F)F)c3)cs2)cc1C(F)(F)F [compound 715, N-(3-(trifluoromethyl)-4-(octyloxy)phenyl)-4-(3-(tnfluoromethyl)phenyl)thiazol-2-amine] cannot be ordered by EC50: less than 1000 nM for the first, less than 1000 nM for the second.

CCCCCCCCOc1ccc(Nc2nc(-c3cnc(Cl)c(C(=O)OC)c3)cs2)cc1C(F)(F)F [compound 672, methyl 5-(2-(3-(trifluoromethyl)-4-(octyloxy)phenylamino)thiazol-4-yl)-2-chloropyridine-3-carboxylate] and CCCCCCCCOc1ccc(Nc2nc(-c3ccsc3C(N)=O)cs2)cc1C(F)(F)F [compound 667, 3-(2-(3-(trifluoromethyl)-4-(octyloxy)phenylamino)thiazol-4-yl)thiophene-2-carboxamide] cannot be ordered by EC50: less than 1000 nM for the first, less than 1000 nM for the second.

same assay, conditions: Hepatitis C virus, replicon based assay of HCV replication inhibition; Table II; read-out: Activity

Compared with CCCCCCCCOc1ccc(Nc2nc(-c3cccnc3)c(C(=O)OC)s2)cc1 [compound 444, meethyl 2-(4-(octyloxy)pheenylamino)-4-(pyridin-3-yl)thiazol-5-carboxylate], CCCCCCCCOc1ccc(Nc2nc(-c3ccc(C)nc3)cs2)cc1 [compound 370, 4-(6-methylpyridin-3-yl)-N-(4-(octyloxy)phenyl)thiazol-2-amine] is lower in EC50: 1000 to 10000 nM for the first, less than 1000 nM for the second. The second is the more potent here.

CCCCCOc1ccc(Nc2nc(-c3ccc(Cl)nc3)cs2)cc1C(F)(F)F [compound 460, 4-(6-chloropyridin-3-yl)-N-(3-(trifluoromethyl)-4-(pentyloxy)phenyl)thiazol-2-amine] and CCCCCOc1ccc(Nc2nc(-c3ccncc3)cs2)cc1C(F)(F)F [compound 364, N-(4-(pentyloxy)-3-(trifluoromethyl)phenyl)-4-(pyridin-4-yl)thiazol-2-amine] cannot be ordered by EC50: less than 1000 nM for the first, less than 1000 nM for the second.

CCCCCCCCOc1ccc(Nc2nc(-c3ccccc3O)cs2)cc1 [compound 373, 2-(2-(4-(octyloxy)phenylamino)thia-zol-4-yl)phenol] and CCCCCCCOc1ccc(Nc2nc(-c3ccc(O)c(O)c3)cs2)cc1 [compound 392, 4-(2-(4-(heptyloxy)phenylamino)thia-zol-4-yl)benzene-1,2-diol] cannot be ordered by EC50: less than 1000 nM for the first, less than 1000 nM for the second.

CCCCCCCCOc1ccc(Nc2nc(CN3CCC(O)C3)cs2)cc1 (centres unmarked) [compound 318, 1-((2-(4-(octyloxy)phenylamino)thia-zol-4-yl)methyl)pyrrolidin-3-ol] and CCCCCCCCOc1ccc(Nc2nc(CC)cs2)cc1 [compound 391, 4-ethyl-N-(4-(octyloxy)phenyl)thiazol-2-amine] cannot be ordered by EC50: less than 1000 nM for the first, less than 1000 nM for the second.

Compared with CCCCCOc1ccc(Nc2nc(-c3ccc(O)c(O)c3)cs2)cc1C(F)(F)F [compound 404, 4-(2-(3-(trifluoromethyl)-4-(pentyloxy)phenylamino)thia-zol-4-yl)benzene-1,2-diol], CCCCCOc1ccc(Nc2nc(C(=O)Nc3ccc(C(F)(F)F)nc3)cs2)cc1C(F)(F)F [compound 233, 2-(4-(pentyloxy)-3-(trifluoromethyl)phenyl-amino)-N-(6-(trifluoromethyl)pyridin-3-yl)thiazole-4-carboxamide] is higher in EC50: less than 1000 nM for the first, greater than 10000 nM for the second. The first is the more potent here.

Compared with CCCCCOc1ccc(Nc2nc(CN3CCN(C(=O)OC(C)(C)C)CC3)cs2)cc1C(F)(F)F [compound 265, tert-butyl 4-((2-(4-(pentyloxy)-3-(trifluoromethyl)phenyl-amino)thiazol-4-yl)methyl)piperazine-1-carboxylate], CCCCCOc1ccc(Nc2nc(CN3CCC(C(=O)OCC)CC3)cs2)cc1F [compound 289, ethyl 1-((2-(3-fluoro-4-(pentyloxy)phenylamino)thia-zol-4-yl)methyl)piperidine-4-carboxylate] is higher in EC50: less than 1000 nM for the first, 1000 to 10000 nM for the second. The first is the more potent here.

First: CCOC(=O)c1ccc(Nc2nc(-c3ccc(OCC(=O)O)cc3)c(C)s2)cc1 [compound 337, 2-(4-(2-(4-(ethoxycarbonyl)phenylamino)-5-methylthiazol-4-yl)phenoxy)acetic acid]
Second: CCCCCCCCOc1ccc(Nc2nc(-c3ccc4[nH]c(=O)oc4c3)cs2)cc1 [compound 383, 6-(2-(4-(octyloxy)phenylamino)thia-zol-4-yl)benzo[d]oxazol-2(3H)-one]
The EC50 of the first is higher: greater than 10000 nM for the first, less than 1000 nM for the second.

same assay, conditions: Hepatitis C virus, replicon based assay of HCV replication inhibition; Table IV; read-out: Activity

CCCCCCCCOc1ccc(Nc2nc(C3=CSC4=NC(=O)CN34)cs2)cc1C(F)(F)F [compound 801, 3-(2-(3-(trifluoromethyl)-4-(octyloxy)phenylamino)thiazol-4-yl)imidazo[2,1-b]thiazol-6(SH)-one] and CCCCCCCCOc1ccc(Nc2nc(C3=CSC4=NCCCN34)cs2)cc1C(F)(F)F [compound 786, N-(3-(trifluoromethyl)-4-(octyloxy)phenyl)-4-(6,7-dihydro-5H-thiazolo[3,2-a]pyrimidin-3-yl)thiazol-2-amine] cannot be ordered by EC50: less than 1000 nM for the first, less than 1000 nM for the second.

Compared with CC(C)=CCC/C(C)=C/COc1ccc(Nc2nc(-c3ccc(F)cc3)cs2)cc1C(F)(F)F [compound 827, N-(4-((E)-3,7-dimethylocta-2,6-dienyloxy)-3-(trifluoromethyl)phenyl)-4-(4-fluorophenyl)thiazol-2-amine], FC(F)(F)c1cc(Nc2nc(-c3cccnc3)cs2)ccc1OCCSc1ccccc1 [compound 864, N-(4-(2-(phenylthio)ethoxy)-3-(trifluoromethyl)phenyl)-4-(pyridin-3-yl)thiazol-2-amine] is lower in EC50: greater than 10000 nM for the first, less than 1000 nM for the second. The second is the more potent here.

CCCCCCCCS(=O)(=O)c1ccc(Nc2nc(-c3cccnc3)cs2)cc1 [compound 951, N-(4-(octylsulfonyl)phenyl)-4-(pyridin-3-yl)thiazol-2-amine] and Cc1cccc(CCCCOc2ccc(Nc3nc(-c4cccnc4)cs3)cc2C(F)(F)F)c1 [compound 935, N-(4-(4-m-tolylbutoxy)-3-(trifluoromethyl)phenyl)-4-(pyridin-3-yl)thiazol-2-amine] cannot be ordered by EC50: less than 1000 nM for the first, less than 1000 nM for the second.

Compared with CCOC(=O)Cc1ccc(-c2csc(Nc3ccc(OCCSc4ccccc4)c(C(F)(F)F)c3)n2)s1 [compound 934, ethyl 2-(5-(2-(4-(2-(phenylthio)ethoxy)-3-(trifluoromethyl)phenylamino)thiazol-4-yl)thiophen-2-yl)acetate], c1ccc(-c2nc3cc(Nc4nc(-c5cccnc5)cs4)ccc3o2)cc1 [compound 736, 2-phenyl-N-(4-(pyridin-3-yl)thiazol-2-yl)benzo[d]oxazol-5-amine] is lower in EC50: 1000 to 10000 nM for the first, less than 1000 nM for the second.

Work on Fc1c(Nc2nc(-c3cccnc3)cs2)cccc1C(F)(F)F [compound 890, N-(2-fluoro-3-(trifluoromethyl)phenyl)-4-(pyridin-3-yl)thiazol-2-amine] yielded an EC50 of 1000 to 10000 nM.
